# Results as given in ChEMBL document CHEMBL1933028, “Discovery of cyclic amine-substituted benzoic acids as PPARα agonists” (Bioorg Med Chem Lett, 2012).
# How the values were obtained:
# [1] = tested on: Canis familiaris; experiment: Antidyslipidemic activity in high-fat diet fed dog assessed as decrease in total cholesterol at 0.01 mg/kg, po administered QD for 1 week (reference value: 205 +/- 6 mg/dL); assay type: functional, Canis lupus familiaris
# [2] = tested on: Canis familiaris; experiment: Antidyslipidemic activity in high-fat diet fed dog assessed as decrease in non-HDL cholesterol at 0.01 mg/kg, po administered QD for 1 week (reference value: 75 +/- 5 mg/dL); assay type: functional, Canis lupus familiaris
# [3] = tested on: Canis familiaris; experiment: Volume of distribution at steady state in dog at 0.3 mg/kg, po; assay type: ADME, organism-based, Canis lupus familiaris; parameters: dose 0.3 mg/kg, route oral; settings: in vivo
# [4] = tested on: Canis familiaris; experiment: Toxicity in high-fat diet fed dog assessed as change in body weight at 0.003 mg/kg, po administered QD for 1 week (reference value: 14.8 +/- 0.7 kg); assay type: organism-based, Canis lupus familiaris; parameters: dose 0.003 mg/kg, route oral; settings: in vivo, 168 h
# [5] = target: T1, Peroxisome proliferator-activated receptor delta (Homo sapiens, UniProt Q03181); experiment: Transactivation of human PPARdelta expressed in CHO-K1 cells; assay type: cell-based
# T1 sequence (Q03181 whole entry): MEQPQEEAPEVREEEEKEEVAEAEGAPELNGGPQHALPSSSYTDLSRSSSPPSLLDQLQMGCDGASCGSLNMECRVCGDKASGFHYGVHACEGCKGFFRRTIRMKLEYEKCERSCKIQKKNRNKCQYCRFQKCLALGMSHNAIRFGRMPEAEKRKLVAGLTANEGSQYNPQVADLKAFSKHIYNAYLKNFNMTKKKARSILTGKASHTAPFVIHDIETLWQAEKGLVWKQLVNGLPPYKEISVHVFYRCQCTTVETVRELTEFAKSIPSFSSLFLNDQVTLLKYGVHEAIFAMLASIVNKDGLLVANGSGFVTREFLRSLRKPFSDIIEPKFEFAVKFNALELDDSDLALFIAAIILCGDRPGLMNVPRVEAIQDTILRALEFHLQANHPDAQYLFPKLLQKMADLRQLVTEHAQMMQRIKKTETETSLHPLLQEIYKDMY
# [6] = tested on: Canis familiaris; experiment: Antidyslipidemic activity in high-fat diet fed dog assessed as decrease in serum triglyceride level at 0.03 mg/kg, po administered QD for 1 week (reference value: 98 +/- 4 mg/dL); assay type: functional, Canis lupus familiaris
# [7] = Agonist activity at hamster PPARgamma; assay type: functional, Cricetinae
# [8] = Total clearance in dog at 0.3 mg/kg, po; assay type: ADME, organism-based, Canis lupus familiaris; parameters: dose 0.3 mg/kg, route oral; settings: in vivo
# [9] = target: T2, Peroxisome proliferator-activated receptor alpha (Homo sapiens, UniProt Q07869); experiment: Transactivation of human PPARalpha expressed in CHO-K1 cells; assay type: cell-based
# T2 sequence (Q07869 whole entry): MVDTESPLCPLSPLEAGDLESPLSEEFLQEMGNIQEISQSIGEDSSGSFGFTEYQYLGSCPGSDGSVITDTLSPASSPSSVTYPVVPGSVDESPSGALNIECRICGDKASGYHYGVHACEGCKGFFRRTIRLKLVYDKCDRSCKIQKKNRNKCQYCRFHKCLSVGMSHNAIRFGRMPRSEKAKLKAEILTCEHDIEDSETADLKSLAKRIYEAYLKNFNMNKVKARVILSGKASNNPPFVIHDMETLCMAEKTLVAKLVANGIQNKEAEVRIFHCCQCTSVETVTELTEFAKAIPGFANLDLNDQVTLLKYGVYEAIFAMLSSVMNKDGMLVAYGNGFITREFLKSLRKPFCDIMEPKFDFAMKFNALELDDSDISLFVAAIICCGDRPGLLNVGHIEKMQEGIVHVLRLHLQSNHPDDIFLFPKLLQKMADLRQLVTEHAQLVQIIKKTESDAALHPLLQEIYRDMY
# [10] = Cmax in rat at 1 mg/kg, po; assay type: ADME, organism-based; parameters: dose 1 mg/kg, route oral; settings: in vivo
# [11] = tested on: Canis familiaris; experiment: Toxicity in high-fat diet fed dog assessed as effect on food intake at 0.01 mg/kg, po administered QD for 1 week (reference value: 3.67+/-0.09 kg); assay type: organism-based, Canis lupus familiaris; parameters: dose 0.01 mg/kg, route oral; settings: in vivo, 168 h
# [12] = target: T3, Peroxisome proliferator-activated receptor alpha (Canis lupus familiaris, UniProt Q95N78); experiment: Agonist activity at dog PPARalpha; assay type: functional
# T3 sequence (Q95N78 whole entry): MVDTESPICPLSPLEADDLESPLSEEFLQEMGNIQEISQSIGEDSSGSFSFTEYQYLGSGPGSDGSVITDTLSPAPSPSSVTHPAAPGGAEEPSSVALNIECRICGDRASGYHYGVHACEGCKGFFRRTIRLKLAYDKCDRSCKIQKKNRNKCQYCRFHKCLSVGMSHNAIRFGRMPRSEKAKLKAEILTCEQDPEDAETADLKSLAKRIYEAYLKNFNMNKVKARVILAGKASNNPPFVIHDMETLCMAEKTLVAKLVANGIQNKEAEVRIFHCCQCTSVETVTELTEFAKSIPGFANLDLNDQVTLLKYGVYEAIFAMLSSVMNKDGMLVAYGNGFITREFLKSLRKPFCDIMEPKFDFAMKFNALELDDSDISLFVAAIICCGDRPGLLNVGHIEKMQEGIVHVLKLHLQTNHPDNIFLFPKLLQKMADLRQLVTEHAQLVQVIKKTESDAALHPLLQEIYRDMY
# [13] = Oral bioavailability in rat at 1 mg/kg; assay type: ADME, organism-based; settings: in vivo
# [14] = Half life in rat at 1 mg/kg, po; assay type: ADME, organism-based; parameters: dose 1 mg/kg, route oral; settings: in vivo
# [15] = tested on: Canis familiaris; experiment: Antidyslipidemic activity in high-fat diet fed dog assessed as decrease in total cholesterol at 0.003 mg/kg, po administered QD for 1 week (reference value: 205 +/- 6 mg/dL); assay type: functional, Canis lupus familiaris
# [16] = tested on: Canis familiaris; experiment: Toxicity in high-fat diet fed dog assessed as effect on food intake at 0.003 mg/kg, po administered QD for 1 week (reference value: 3.67+/-0.09 kg); assay type: organism-based, Canis lupus familiaris; parameters: dose 0.003 mg/kg, route oral; settings: in vivo, 168 h
# [17] = Agonist activity at hamster PPARalpha; assay type: functional, Cricetinae
# [18] = Agonist activity at hamster PPARdelta; assay type: functional, Cricetinae
# [19] = target: T4, Peroxisome proliferator-activated receptor alpha (Mus musculus, UniProt P23204); experiment: Agonist activity at mouse PPARalpha; assay type: functional
# T4 sequence (P23204 whole entry): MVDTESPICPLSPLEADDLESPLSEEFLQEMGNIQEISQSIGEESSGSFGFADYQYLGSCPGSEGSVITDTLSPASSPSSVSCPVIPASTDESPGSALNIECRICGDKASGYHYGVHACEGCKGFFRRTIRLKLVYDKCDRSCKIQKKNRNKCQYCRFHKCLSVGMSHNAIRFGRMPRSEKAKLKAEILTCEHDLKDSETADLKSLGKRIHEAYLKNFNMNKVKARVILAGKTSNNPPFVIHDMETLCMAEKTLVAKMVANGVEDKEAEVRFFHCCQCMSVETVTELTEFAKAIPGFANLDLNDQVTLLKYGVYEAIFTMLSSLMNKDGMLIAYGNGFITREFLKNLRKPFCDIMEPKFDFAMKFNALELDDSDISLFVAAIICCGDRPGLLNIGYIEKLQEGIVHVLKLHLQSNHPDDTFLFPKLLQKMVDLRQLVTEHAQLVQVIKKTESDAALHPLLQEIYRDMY
# [20] = Half life in dog at 0.3 mg/kg, po; assay type: ADME, organism-based, Canis lupus familiaris; parameters: dose 0.3 mg/kg, route oral; settings: in vivo
smiles,measurement,setting,value
Cc1nc(-c2ccc(Cl)cc2)sc1C(=O)N[C@H]1CCCN(c2cccc(C(=O)O)c2)C1,Activity,[1],176 mg/dL
same,Activity,[2],50 mg/dL
same,Vdss,[3],1.66 L/kg
same,Activity,[4],15.3 kg
same,EC50,[5],3 µM
same,Activity,[6],44 mg/dL
same,EC50,[7],> 15 µM
same,CL/F,[8],0.333 mL/min/kg
same,EC50,[9],8 nM
same,Cmax,[10],316 ng/mL
same,Activity,[11],3.91 kg
same,EC50,[12],190 nM
same,bioavailability,[13],47.6%
same,half-life,[14],600 min
same,Activity,[15],190 mg/dL
same,Activity,[16],3.85 kg
same,EC50,[17],610 nM
same,EC50,[18],> 7.1 µM
same,EC50,[19],4.7 µM
same,half-life,[20],3.08 days
